Measured values from article PMC8120209, “Longitudinal evaluation of a novel BChE PET tracer as an early in vivo biomarker in the brain of a mouse model for Alzheimer disease” (Theranostics, 2021).

How the values were obtained:
Assay in all cases: biochemical
[1] = target: T1, GR (h) (Homo sapiens, UniProt P04150); set-up: Eurofins SafetyScreen44 radioligand displacement, inhibition of control specific binding; settings: read-out: % Inhibition of Control Specific Binding, Mean
T1 construct: gene NR3C1

[2] = target: T2, 5-HT2B(h) (Homo sapiens, UniProt P41595); set-up: Eurofins SafetyScreen44 radioligand displacement, inhibition of control specific binding; settings: read-out: % Inhibition of Control Specific Binding, Mean
T2 construct: gene HTR2B

[3] = target: T3, D2S(h) (Homo sapiens, UniProt P14416); set-up: Eurofins SafetyScreen44 radioligand displacement, inhibition of control specific binding; settings: read-out: % Inhibition of Control Specific Binding, Mean
T3 construct: gene DRD2; short isoform D2S

[4] = target: T4, acetylcholinesterase (h) (Homo sapiens, UniProt P22303); set-up: Eurofins SafetyScreen44 enzyme assays, inhibition of control specific activity; settings: read-out: % Inhibition of Control Values, Mean
T4 construct: gene ACHE
T4 sequence (P22303 whole entry): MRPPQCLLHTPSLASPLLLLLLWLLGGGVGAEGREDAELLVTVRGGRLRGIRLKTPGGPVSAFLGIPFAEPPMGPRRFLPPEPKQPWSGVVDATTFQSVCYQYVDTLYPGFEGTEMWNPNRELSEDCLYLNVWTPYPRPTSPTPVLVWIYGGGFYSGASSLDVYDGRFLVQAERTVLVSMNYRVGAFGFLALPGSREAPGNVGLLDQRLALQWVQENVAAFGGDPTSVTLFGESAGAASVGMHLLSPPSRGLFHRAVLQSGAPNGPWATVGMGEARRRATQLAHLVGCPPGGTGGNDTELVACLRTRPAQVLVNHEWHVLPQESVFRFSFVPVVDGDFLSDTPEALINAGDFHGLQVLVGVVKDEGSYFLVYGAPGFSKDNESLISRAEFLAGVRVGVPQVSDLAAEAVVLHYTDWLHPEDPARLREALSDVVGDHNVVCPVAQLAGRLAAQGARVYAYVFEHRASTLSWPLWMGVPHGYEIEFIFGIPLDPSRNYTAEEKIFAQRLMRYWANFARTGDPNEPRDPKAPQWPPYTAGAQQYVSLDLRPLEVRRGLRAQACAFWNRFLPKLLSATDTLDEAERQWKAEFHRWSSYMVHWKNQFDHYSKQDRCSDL

T3 sequence (P14416 whole entry, canonical isoform): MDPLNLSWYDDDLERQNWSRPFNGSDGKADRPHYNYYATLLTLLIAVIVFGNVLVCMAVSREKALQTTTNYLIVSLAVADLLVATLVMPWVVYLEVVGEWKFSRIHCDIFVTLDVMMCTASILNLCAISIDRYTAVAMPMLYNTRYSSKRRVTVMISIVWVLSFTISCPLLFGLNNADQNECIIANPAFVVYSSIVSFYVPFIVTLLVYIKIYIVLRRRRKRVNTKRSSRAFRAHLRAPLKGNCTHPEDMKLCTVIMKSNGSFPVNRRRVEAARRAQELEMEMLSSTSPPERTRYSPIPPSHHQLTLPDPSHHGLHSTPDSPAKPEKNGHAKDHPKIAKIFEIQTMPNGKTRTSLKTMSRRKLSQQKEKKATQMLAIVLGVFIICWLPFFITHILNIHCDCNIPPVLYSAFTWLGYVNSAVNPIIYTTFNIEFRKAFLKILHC
T1 sequence (P04150 whole entry): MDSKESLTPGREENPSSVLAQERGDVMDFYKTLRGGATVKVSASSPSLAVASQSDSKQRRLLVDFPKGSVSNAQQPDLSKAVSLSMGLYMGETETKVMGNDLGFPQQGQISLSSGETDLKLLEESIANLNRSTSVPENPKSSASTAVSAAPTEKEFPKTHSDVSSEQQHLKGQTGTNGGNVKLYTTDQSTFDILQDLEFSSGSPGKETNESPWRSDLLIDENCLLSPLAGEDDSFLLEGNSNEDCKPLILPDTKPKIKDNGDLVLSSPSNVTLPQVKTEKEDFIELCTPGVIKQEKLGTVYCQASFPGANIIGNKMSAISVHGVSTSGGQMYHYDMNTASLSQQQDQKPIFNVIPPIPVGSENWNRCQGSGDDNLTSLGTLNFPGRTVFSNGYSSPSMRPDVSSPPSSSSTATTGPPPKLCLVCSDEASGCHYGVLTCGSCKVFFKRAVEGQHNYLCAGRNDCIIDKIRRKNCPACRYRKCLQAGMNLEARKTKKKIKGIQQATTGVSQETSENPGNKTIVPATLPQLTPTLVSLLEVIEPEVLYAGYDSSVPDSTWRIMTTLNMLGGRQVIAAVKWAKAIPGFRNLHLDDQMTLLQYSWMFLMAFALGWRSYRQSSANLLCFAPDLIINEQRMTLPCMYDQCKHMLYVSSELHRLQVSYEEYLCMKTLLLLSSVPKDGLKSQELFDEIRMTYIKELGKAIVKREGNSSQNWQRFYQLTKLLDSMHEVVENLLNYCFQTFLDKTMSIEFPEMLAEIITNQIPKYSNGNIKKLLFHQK
T2 sequence (P41595 whole entry): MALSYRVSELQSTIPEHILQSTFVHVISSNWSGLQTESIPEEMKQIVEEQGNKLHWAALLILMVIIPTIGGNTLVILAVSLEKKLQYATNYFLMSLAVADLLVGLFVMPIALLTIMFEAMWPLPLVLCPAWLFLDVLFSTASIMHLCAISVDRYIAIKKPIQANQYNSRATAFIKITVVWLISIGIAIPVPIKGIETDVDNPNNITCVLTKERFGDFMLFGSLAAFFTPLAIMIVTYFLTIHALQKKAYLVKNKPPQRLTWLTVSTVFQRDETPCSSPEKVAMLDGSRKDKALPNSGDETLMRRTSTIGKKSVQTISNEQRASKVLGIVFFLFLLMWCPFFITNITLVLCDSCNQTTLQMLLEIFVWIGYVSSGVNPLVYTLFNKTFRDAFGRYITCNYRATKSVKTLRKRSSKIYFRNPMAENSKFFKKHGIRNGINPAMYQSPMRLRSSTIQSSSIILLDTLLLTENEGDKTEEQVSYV

Compound `COCCN(CC1CCCN(Cc2ccccc2)C1)S(=O)(=O)c1ccc2ccccc2c1` (racemic) [compound 4, (±)N-((1-benzylpiperidin-3-yl)methyl)-N-(2-methoxyethyl)naphthalene-2-sulfonamide] has an inhibition at 10 µM [1] of 4.7%, an inhibition at 10 µM [2] of 88.4% and an inhibition at 10 µM [3] of 55.6%. The inhibition at 10 µM [4] was 12.3%.
